Experimental data as given in patent US20060069132A1, “Azolecarboxamide herbicides” (priority 2004, published 2006).
Read-outs that look alike come from different tables or passages of the source.

What was measured:
velvetleaf = test: Test B pre-/postemergence herbicide test; format: in vivo, Abutilon theophrasti; conditions: Abutilon theophrasti, 336 h; for pest or weed control at 125 g/ha: 125 g ai/ha; for pest or weed control at 500 g/ha: 500 g ai/ha
In short: (§1)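 Response was scored visually 13 to 15 days after treatment against untreated greenhouse controls, 0 meaning no effect and 100 complete control. Formulations (solvent mixture plus surfactant) went onto soil after planting, onto foliage of 1- to 4-leaf plants, and onto 2-leaf plants in a flooded paddy set including rice and barnyardgrass.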

wheat = test: Test B postemergence herbicide test; format: in vivo, Triticum aestivum; conditions: Triticum aestivum, post-emergence, 336 h, postemergence, visual rating, scale 0 (no effect) to 100 (complete control), read-out: Wheat plant response rating
In short: (§2)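 Visual ratings, 0 (no effect) to 100 (complete control), made versus controls after 13–15 d greenhouse. Paddy plants treated at 2-leaf stage; postemergence plants at 1- to 4-leaf stage, 2–18 cm tall.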

Surinam grass = test: Test B pre-/postemergence herbicide test; format: in vivo, Urochloa decumbens; conditions: Urochloa decumbens; for pest or weed control at 125 g/ha: 125 g ai/ha; for pest or weed control at 500 g/ha: 500 g ai/ha
In short: as §1

wild oat = test: Test B postemergence herbicide test; format: in vivo, Avena fatua; conditions: Avena fatua, post-emergence, 336 h, postemergence, visual rating, scale 0 (no effect) to 100 (complete control), read-out: Oat, Wild plant response rating
In short: as §2

[1] = tested on: small flower umbrella sedge; test: Test B flooded paddy test; format: in vivo, Cyperus difformis; conditions: Cyperus difformis, 336 h, 1000 g ai/ha, scale 0 to 100 (0 no effect, 100 complete control), read-out: Sedge, Umbrella plant response rating
In short: (§3)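 Formulated test chemicals went onto postemergence plants measuring 2 to 18 cm, at one to four leaves. For the paddy assay, species had reached two leaves. Scoring took place 13–15 days later by eye, relative to untreated plants, using 0 for no effect up to 100 for full control.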

ducksalad = test: Test B flooded paddy test; format: in vivo, Heteranthera limosa; conditions: Heteranthera limosa, 336 h, 1000 g ai/ha, scale 0 to 100 (0 no effect, 100 complete control), read-out: Ducksalad plant response rating
In short: as §3

cocklebur = test: Test B pre-/postemergence herbicide test; format: in vivo, Xanthium strumarium; conditions: Xanthium strumarium; for pest or weed control at 125 g/ha: 125 g ai/ha; for pest or weed control at 500 g/ha: 500 g ai/ha
In short: (§4)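 Plants compared with untreated controls 13–15 days post-treatment and given a visual 0–100 injury score. Applications: preemergence to seeds; postemergence at 1- to 4-leaf (2–18 cm); paddy species flooded, 2-leaf stage. Vehicle non-phytotoxic, surfactant included.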

lambsquarters = test: Test B pre-/postemergence herbicide test; format: in vivo, Chenopodium album; conditions: Chenopodium album, 336 h; for pest or weed control at 125 g/ha: 125 g ai/ha; for pest or weed control at 500 g/ha: 500 g ai/ha
In short: as §1

large crabgrass = test: Test B pre-/postemergence herbicide test; format: in vivo, Digitaria sanguinalis; conditions: Digitaria sanguinalis; for pest or weed control at 125 g/ha: 125 g ai/ha; for pest or weed control at 500 g/ha: 500 g ai/ha
In short: as §1

pigweed = test: Test B pre-/postemergence herbicide test; format: in vivo, Amaranthus retroflexus; conditions: Amaranthus retroflexus, 336 h; for pest or weed control at 125 g/ha: 125 g ai/ha; for pest or weed control at 500 g/ha: 500 g ai/ha
In short: as §1

rice = test: Test B flooded paddy test; format: in vivo, Oryza sativa; conditions: Oryza sativa, 336 h, 1000 g ai/ha, scale 0 to 100 (0 no effect, 100 complete control), read-out: Rice plant response rating
In short: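 Postemergence plants were sprayed with formulated test chemicals at 2 to 18 cm height (1- to 4-leaf stage); paddy species were grown to the 2-leaf stage. After 13 to 15 days in a greenhouse, injury was rated visually against untreated controls on a 0–100 scale (0 = no effect, 100 = complete control).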

blackgrass = test: Test B postemergence herbicide test; format: in vivo, Alopecurus myosuroides; conditions: Alopecurus myosuroides, post-emergence, 336 h, postemergence, visual rating, scale 0 (no effect) to 100 (complete control), read-out: Blackgrass plant response rating
In short: as §3

corn = test: Test B pre-/postemergence herbicide test; format: in vivo, Zea mays; conditions: Zea mays; for plant injury at 125 g/ha: 125 g ai/ha
In short: as §1

giant foxtail = test: Test B pre-/postemergence herbicide test; format: in vivo, Setaria faberi; conditions: Setaria faberi, 336 h; for pest or weed control at 125 g/ha: 125 g ai/ha; for pest or weed control at 500 g/ha: 500 g ai/ha
In short: as §1

barnyardgrass = test: Test B pre-/postemergence herbicide test; format: in vivo, Echinochloa crus-galli; conditions: Echinochloa crus-galli, pre-emergence, 0 = no effect, 100 = complete control
In short: as §4

[2] = post-emergence, postemergence, visual rating, scale 0 (no effect) to 100 (complete control), read-out: Velvetleaf plant response rating
[3] = post-emergence, postemergence, visual rating, scale 0 (no effect) to 100 (complete control), read-out: Surinam Grass plant response rating
[4] = post-emergence, postemergence, visual rating, scale 0 (no effect) to 100 (complete control), read-out: Cocklebur plant response rating
[5] = post-emergence, postemergence, visual rating, scale 0 (no effect) to 100 (complete control), read-out: Lambsquarters plant response rating
[6] = post-emergence, postemergence, visual rating, scale 0 (no effect) to 100 (complete control), read-out: Crabgrass, Large plant response rating
[7] = post-emergence, postemergence, visual rating, scale 0 (no effect) to 100 (complete control), read-out: Pigweed plant response rating
[8] = post-emergence, postemergence, visual rating, scale 0 (no effect) to 100 (complete control), read-out: Foxtail, Giant plant response rating

In the case of CCn1nc(C(C)(C)C)cc1C(=O)Nc1ccc(F)c(C(=O)N(C)C)c1 [Compound 236, N-[3-[(dimethylamino)carbonyl]-4-fluorophenyl]-3-(1,1-dimethylethyl)-1-ethyl-1H-pyrazole-5-carboxamide], the pest or weed control at 125 g/ha (velvetleaf; [2]) is reported as 20%, the pest or weed control at 500 g/ha (velvetleaf; [2]) is reported as 50% and the pest or weed control at 125 g/ha (velvetleaf; pre-emergence, 0 = no effect, 100 = complete control, read-out: Velvetleaf plant response rating (0 to 100 scale)) is reported as 20%. The pest or weed control at 500 g/ha (velvetleaf; pre-emergence, visual rating, 0 = no effect, 100 = complete control, read-out: Plant response rating, Velvetleaf) was 80%, the plant injury at 125 g/ha (wheat; 125 g ai/ha) was 10% and the plant injury at 500 g/ha (wheat; 500 g ai/ha) was 20%. It also gave a pest or weed control at 125 g/ha (Surinam grass; [3]) of 0%, a pest or weed control at 500 g/ha (Surinam grass; [3]) of 20% and a pest or weed control at 125 g/ha (Surinam grass; pre-emergence, 0 = no effect, 100 = complete control, read-out: Surinam Grass plant response rating (0 to 100 scale)) of 20%. It also gave a pest or weed control at 500 g/ha (Surinam grass; pre-emergence, visual rating, 0 = no effect, 100 = complete control, read-out: Plant response rating, Surinam Grass) of 60%, a pest or weed control at 125 g/ha (wild oat; 125 g ai/ha) of 20% and a pest or weed control at 500 g/ha (wild oat; 500 g ai/ha) of 20%. It also gave a pest or weed control at 1000 g/ha [1] of 80%, a pest or weed control at 1000 g/ha (ducksalad) of 90% and a pest or weed control at 125 g/ha (cocklebur; [4]) of 20%. It also gave a pest or weed control at 500 g/ha (cocklebur; [4]) of 40%, a pest or weed control at 125 g/ha (cocklebur; pre-emergence, 0 = no effect, 100 = complete control, read-out: Cocklebur plant response rating (0 to 100 scale)) of 0% and a pest or weed control at 500 g/ha (cocklebur; pre-emergence, visual rating, 0 = no effect, 100 = complete control, read-out: Plant response rating, Cocklebur) of 20%. The pest or weed control at 125 g/ha (lambsquarters; [5]) was 60%, the pest or weed control at 500 g/ha (lambsquarters; [5]) was 70% and the pest or weed control at 125 g/ha (lambsquarters; pre-emergence, 0 = no effect, 100 = complete control, read-out: Lambsquarters plant response rating (0 to 100 scale)) was 50%. It also gave a pest or weed control at 500 g/ha (lambsquarters; pre-emergence, visual rating, 0 = no effect, 100 = complete control, read-out: Plant response rating, Lambsquarters) of 100%, a pest or weed control at 125 g/ha (large crabgrass; [6]) of 0% and a pest or weed control at 500 g/ha (large crabgrass; [6]) of 20%. For the same compound, the pest or weed control at 125 g/ha (large crabgrass; pre-emergence, 0 = no effect, 100 = complete control, read-out: Crabgrass, Large plant response rating (0 to 100 scale)) was 30%, the pest or weed control at 500 g/ha (large crabgrass; pre-emergence, visual rating, 0 = no effect, 100 = complete control, read-out: Plant response rating, Crabgrass, Large) was 70% and the pest or weed control at 125 g/ha (pigweed; [7]) was 60%. The pest or weed control at 500 g/ha (pigweed; [7]) was 70%, the pest or weed control at 125 g/ha (pigweed; pre-emergence, 0 = no effect, 100 = complete control, read-out: Pigweed plant response rating (0 to 100 scale)) was 30% and the pest or weed control at 500 g/ha (pigweed; pre-emergence, visual rating, 0 = no effect, 100 = complete control, read-out: Plant response rating, Pigweed) was 90%. It also gave a plant injury at 1000 g/ha (rice) of 70%, a pest or weed control at 125 g/ha (blackgrass; 125 g ai/ha) of 0% and a pest or weed control at 500 g/ha (blackgrass; 500 g ai/ha) of 10%. For the same compound, the plant injury at 125 g/ha (corn; post-emergence, postemergence, visual rating, scale 0 (no effect) to 100 (complete control), read-out: Corn plant response rating) was 20%, the plant injury at 500 g/ha (corn; post-emergence, postemergence, 500 g ai/ha, visual rating, scale 0 (no effect) to 100 (complete control), read-out: Corn plant response rating) was 40% and the plant injury at 125 g/ha (corn; pre-emergence, 0 = no effect, 100 = complete control, read-out: Corn plant response rating (0 to 100 scale)) was 0%. It also gave a Corn plant response rating (crop injury, 0 = no effect, 100 = complete kill) at 500 g/ha (corn; pre-emergence, 500 g ai/ha, visual rating, 0 = no effect, 100 = complete control) of 10%, a pest or weed control at 125 g/ha (giant foxtail; [8]) of 10% and a pest or weed control at 500 g/ha (giant foxtail; [8]) of 40%. For the same compound, the pest or weed control at 125 g/ha (giant foxtail; pre-emergence, 0 = no effect, 100 = complete control, read-out: Foxtail, Giant plant response rating (0 to 100 scale)) was 10%, the pest or weed control at 500 g/ha (giant foxtail; pre-emergence, visual rating, 0 = no effect, 100 = complete control, read-out: Plant response rating, Foxtail, Giant) was 50% and the pest or weed control at 125 g/ha (barnyardgrass; 125 g ai/ha, read-out: Barnyardgrass plant response rating (0 to 100 scale)) was 50%. The pest or weed control at 500 g/ha (barnyardgrass; 500 g ai/ha, visual rating, read-out: Plant response rating, Barnyardgrass) was 90%.
